Measurements taken from patent US8871738B2, “Fused bicyclic oxazolidinone CETP inhibitor” (Merck Sharp & Dohme Corp., priority 2011, dated 2014).

Target: endogenous CETP from serum (Homo sapiens (Human), UniProt P11597)
Assay: RTA assay in 95% human serum (CETP-catalyzed CE and TG transfer, endogenous CETP)
Assay type: biochemical
Conditions: RTA assay in 95% human serum; read-out: IC50

Chain of endogenous CETP from serum (P11597 18-493 limits assumed): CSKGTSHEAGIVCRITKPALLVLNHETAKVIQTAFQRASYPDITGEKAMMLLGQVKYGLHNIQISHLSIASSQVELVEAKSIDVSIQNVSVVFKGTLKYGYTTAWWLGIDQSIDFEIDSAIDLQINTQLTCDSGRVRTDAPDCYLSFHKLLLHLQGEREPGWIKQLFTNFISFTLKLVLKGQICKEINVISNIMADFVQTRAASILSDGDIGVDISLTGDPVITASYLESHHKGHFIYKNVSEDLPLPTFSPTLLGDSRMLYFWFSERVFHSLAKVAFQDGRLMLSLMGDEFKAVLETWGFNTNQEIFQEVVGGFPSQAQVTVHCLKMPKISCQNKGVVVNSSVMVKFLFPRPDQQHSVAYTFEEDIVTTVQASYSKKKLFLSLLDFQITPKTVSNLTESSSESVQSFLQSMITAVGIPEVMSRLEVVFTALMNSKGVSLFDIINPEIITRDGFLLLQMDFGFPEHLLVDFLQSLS

SMILES	IC50 [nM]
COC(=O)c1ccc(-c2cc(-c3ccc(C(F)(F)F)cc3[C@@H]3CC[C@H]4[C@@H](c5cc(C(F)(F)F)cc(C(F)(F)F)c5)OC(=O)N34)c(OC)cc2F)c(C)c1 [Example 6, methyl 2″-{(1R,5S,7aS)-1-[3,5-bis(trifluoromethyl)phenyl]-3-oxotetrahydro-1H-pyrrolo[1,2-c][1,3]oxazol-5-yl}-6′-fluoro-4′-methoxy-2-methyl-4″- (trifluoromethyl)-1,1′:3′,1″- terphenyl-4-carboxylate]	641
COc1ccc(C#N)cc1-c1ccc(C(F)(F)F)cc1[C@@H]1CC[C@H]2[C@@H](c3cc(C(F)(F)F)cc(C(F)(F)F)c3)OC(=O)N12 [Example 9, 2′-{(1R,5S,7aS)-1-[3,5-bis(trifluoromethyl)phenyl]-3-oxotetrahydro-1H-pyrrolo[1,2-c][1,3]oxazol-5-yl}-6-methoxy-4′-(trifluoromethyl)biphenyl-3-carbonitrile]	224
COc1ncc(C(F)(F)F)cc1-c1ccc(C(F)(F)F)cc1[C@@H]1CC[C@H]2[C@@H](c3cc(C(F)(F)F)cc(C(F)(F)F)c3)OC(=O)N12 [Example 10, (1R,5S,7aS)-1-[3,5-bis(trifluoromethyl)phenyl]-5-{2-[2-methoxy-5-(trifluoromethyl)pyridin-3-yl]-5-(trifluoromethyl)phenyl}tetrahydro-1H-pyrrolo[1,2-c][1,3]oxazol-3-one]	371
COc1ncc(Cl)cc1-c1ccc(C(F)(F)F)cc1[C@@H]1CC[C@H]2[C@@H](c3cc(C(F)(F)F)cc(C(F)(F)F)c3)OC(=O)N12 [Example 11, (1R,5S,7aS)-1-[3,5-bis(trifluoromethyl)phenyl]-5-[2-(5-chloro-2-methoxypyridin-3-yl)-5-(trifluoromethyl)phenyl]tetrahydro-1H-pyrrolo[1,2-c][1,3]oxazol-3-one]	294
N#Cc1cscc1-c1ccc(C(F)(F)F)cc1[C@@H]1CC[C@H]2[C@@H](c3cc(C(F)(F)F)cc(C(F)(F)F)c3)OC(=O)N12 [Example 12, 4-[2-{(1R,5S,7aS)-1-[3,5-bis(trifluoromethyl)phenyl]-3-oxotetrahydro-1H-pyrrolo[1,2-c][1,3]oxazol-5-yl}-4-(trifluoromethyl)phenyl]thiophene-3-carbonitrile]	266
COc1ccc(C)cc1-c1ccc(C(F)(F)F)cc1[C@@H]1CC[C@H]2[C@@H](c3cc(C(F)(F)F)cc(C(F)(F)F)c3)OC(=O)N12 [Example 13, (1R,5S,7aS)-1-[3,5-bis(trifluoromethyl)phenyl]-5-[2′-methoxy-5′-methyl-4-(trifluoromethyl)biphenyl-2-yl]tetrahydro-1H-pyrrolo[1,2-c][1,3]oxazol-3-one]	263
COc1ccc(Cl)cc1-c1ccc(C(F)(F)F)cc1[C@@H]1CC[C@H]2[C@@H](c3cc(C(F)(F)F)cc(C(F)(F)F)c3)OC(=O)N12 [Example 14, (1R,5S,7aS)-1-[3,5-bis(trifluoromethyl)phenyl]-5-[5′-chloro-2′-methoxy-4-(trifluoromethyl)biphenyl-2-yl]tetrahydro-1H-pyrrolo[1,2-c][1,3]oxazol-3-one]	233

Same assay, conditions: RTA assay, 95% human serum; read-out: RTA (95% HS)

SMILES	IC50 [nM]
COC(=O)CCc1ccc(OC)c(-c2ccc(C(F)(F)F)cc2[C@@H]2CC[C@H]3[C@@H](c4cc(C(F)(F)F)cc(C(F)(F)F)c4)OC(=O)N23)c1 [Example 1, Methyl 3-[2′-{(1R,5S,7aS)-1-[3,5-bis(trifluoromethyl)phenyl]-3-oxotetrahydro-1H-pyrrolo[1,2-c][1,3]oxazol-5-yl}-6-methoxy-4′-(trifluoromethyl)biphenyl-3-yl]propanoate]	296
COc1ccc([C@H]2[C@H](C)NC(=O)[C@@H]2C)cc1-c1ccc(C(F)(F)F)cc1[C@@H]1CC[C@H]2[C@@H](c3cc(C(F)(F)F)cc(C(F)(F)F)c3)OC(=O)N12 [Example 4, (1R,5S,7aS)-1-(3,5-bis(trifluoromethyl)phenyl)-5-(5′-((2S,3S,4R)-2,4-dimethyl-5-oxopyrrolidin-3-yl)-2′-methoxy-4-(trifluoromethyl)-[1,1′-biphenyl]-2-yl)tetrahydropyrrolo[1,2-c]oxazol-3(1H)one]	398
